Data: ChEMBL document CHEMBL1681764, “Isolation, structure identification and SAR studies on thiosugar sulfonium salts, neosalaprinol and neoponkoranol, as potent α-glucosidase inhibitors” (Bioorg Med Chem, 2011)

Assays:
[1] = molecular target: T1, Sucrase-isomaltase, intestinal (Rattus norvegicus, UniProt P23739); assay: Inhibition of rat intestinal isomaltase
[2] = molecular target: T1, Sucrase-isomaltase, intestinal; assay: Inhibition of rat intestinal sucrase
[3] = molecular target: Sucrase-isomaltase, intestinal (Rattus norvegicus) (UniProt P23739); assay: Inhibition of rat intestinal sucrase at >384 uM
[4] = molecular target: Lysosomal alpha-glucosidase (Rattus norvegicus) (UniProt Q6P7A9); assay: Inhibition of rat intestinal maltase at >384 uM
Lysosomal alpha-glucosidase (Rattus norvegicus), sequence (Q6P7A9 whole entry): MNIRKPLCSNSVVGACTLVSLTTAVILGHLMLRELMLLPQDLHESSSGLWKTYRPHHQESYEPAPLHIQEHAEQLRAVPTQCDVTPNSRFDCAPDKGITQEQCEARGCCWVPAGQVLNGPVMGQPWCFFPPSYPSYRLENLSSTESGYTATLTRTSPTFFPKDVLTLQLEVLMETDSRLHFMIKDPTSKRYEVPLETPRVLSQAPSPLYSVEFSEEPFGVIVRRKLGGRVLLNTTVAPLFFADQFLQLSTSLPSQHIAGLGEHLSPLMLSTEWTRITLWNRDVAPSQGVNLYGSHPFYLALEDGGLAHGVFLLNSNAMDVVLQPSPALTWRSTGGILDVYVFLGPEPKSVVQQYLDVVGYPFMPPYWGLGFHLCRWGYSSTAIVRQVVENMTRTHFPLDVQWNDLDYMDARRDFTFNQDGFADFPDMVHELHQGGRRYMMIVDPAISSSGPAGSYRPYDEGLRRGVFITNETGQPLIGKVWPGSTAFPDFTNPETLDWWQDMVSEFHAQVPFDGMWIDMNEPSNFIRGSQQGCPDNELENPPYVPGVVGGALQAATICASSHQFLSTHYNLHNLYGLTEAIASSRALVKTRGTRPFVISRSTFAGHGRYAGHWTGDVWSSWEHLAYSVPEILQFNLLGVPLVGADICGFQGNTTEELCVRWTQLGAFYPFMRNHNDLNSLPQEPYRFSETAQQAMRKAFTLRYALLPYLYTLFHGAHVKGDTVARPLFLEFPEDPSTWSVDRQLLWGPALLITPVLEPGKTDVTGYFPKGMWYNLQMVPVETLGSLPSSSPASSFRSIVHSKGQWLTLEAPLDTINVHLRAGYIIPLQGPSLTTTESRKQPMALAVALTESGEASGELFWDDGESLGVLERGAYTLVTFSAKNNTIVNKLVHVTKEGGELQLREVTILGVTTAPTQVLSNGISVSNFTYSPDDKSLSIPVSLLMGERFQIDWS

T1 sequence (P23739 1-1013 limits assumed): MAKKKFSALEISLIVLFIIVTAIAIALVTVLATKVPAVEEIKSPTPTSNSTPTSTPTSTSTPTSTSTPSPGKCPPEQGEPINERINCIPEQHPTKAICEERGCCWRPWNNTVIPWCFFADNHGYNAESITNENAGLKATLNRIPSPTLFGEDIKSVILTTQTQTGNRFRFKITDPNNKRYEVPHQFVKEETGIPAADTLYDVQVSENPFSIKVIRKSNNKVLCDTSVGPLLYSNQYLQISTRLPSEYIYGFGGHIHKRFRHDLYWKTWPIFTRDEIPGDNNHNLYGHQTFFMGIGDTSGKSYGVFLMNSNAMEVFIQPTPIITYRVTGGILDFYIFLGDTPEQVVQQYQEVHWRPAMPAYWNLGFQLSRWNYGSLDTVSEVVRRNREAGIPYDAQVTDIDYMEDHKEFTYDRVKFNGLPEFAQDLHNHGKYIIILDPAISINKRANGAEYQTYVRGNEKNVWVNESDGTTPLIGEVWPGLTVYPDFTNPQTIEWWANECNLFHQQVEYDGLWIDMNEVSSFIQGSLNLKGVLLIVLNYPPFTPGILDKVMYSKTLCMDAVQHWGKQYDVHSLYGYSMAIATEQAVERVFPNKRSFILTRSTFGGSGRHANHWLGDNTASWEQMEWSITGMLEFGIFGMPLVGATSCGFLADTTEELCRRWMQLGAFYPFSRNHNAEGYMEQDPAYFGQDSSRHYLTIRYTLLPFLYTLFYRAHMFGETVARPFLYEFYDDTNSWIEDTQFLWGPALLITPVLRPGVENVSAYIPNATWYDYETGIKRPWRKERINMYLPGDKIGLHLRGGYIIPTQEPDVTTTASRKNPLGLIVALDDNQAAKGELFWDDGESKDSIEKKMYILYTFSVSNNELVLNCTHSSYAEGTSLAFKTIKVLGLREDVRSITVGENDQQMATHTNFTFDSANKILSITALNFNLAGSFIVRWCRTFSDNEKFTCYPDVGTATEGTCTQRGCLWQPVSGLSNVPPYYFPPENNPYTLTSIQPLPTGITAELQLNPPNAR
T1 sequence (P23739 1014-1841 limits assumed): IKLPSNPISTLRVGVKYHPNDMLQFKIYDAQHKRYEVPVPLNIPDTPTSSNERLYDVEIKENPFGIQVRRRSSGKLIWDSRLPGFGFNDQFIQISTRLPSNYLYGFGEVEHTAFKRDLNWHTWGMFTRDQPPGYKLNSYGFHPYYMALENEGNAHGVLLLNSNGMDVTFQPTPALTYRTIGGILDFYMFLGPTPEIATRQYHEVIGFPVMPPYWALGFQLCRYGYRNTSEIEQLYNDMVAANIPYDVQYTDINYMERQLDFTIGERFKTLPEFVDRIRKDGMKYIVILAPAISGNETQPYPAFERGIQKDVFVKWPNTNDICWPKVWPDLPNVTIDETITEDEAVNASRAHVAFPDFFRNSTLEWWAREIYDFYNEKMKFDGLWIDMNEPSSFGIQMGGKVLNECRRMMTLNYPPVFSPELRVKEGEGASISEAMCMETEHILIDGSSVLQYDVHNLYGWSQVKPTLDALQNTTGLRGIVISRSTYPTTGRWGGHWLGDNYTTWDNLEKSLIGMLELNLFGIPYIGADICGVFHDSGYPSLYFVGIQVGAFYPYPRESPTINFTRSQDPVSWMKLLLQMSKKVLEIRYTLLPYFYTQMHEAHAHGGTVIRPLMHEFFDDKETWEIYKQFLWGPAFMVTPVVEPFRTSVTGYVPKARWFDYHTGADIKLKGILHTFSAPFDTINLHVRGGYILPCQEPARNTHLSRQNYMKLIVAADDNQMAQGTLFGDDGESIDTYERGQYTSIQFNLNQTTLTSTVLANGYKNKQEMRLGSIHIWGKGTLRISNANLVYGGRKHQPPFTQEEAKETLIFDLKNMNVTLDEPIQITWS
Sucrase-isomaltase, intestinal (Rattus norvegicus), sequence (P23739 1-1013 limits assumed): as the sequence (P23739 1-1013 limits assumed) above
Sucrase-isomaltase, intestinal (Rattus norvegicus), sequence (P23739 1014-1841 limits assumed): as the sequence (P23739 1014-1841 limits assumed) above

Row | IC50 [1] [µM] | IC50 [2] [µM] | inhibition [3] [%] | inhibition [4] [%] | SMILES
1 | 1 | 2.9 | – | – | OC[C@@H](O)[C@@H](O)[C@H](O)[C@H](O)C[S@+]1C[C@@H](O)[C@H](O)[C@H]1CO
2 | > 329 | > 329 | – | – | O=S(=O)([O-])OC[C@@H](O)C[S@+]1C[C@@H](O)[C@H](O)[C@H]1CO
3 | 52.9 | > 384 | 34.5 | – | OC[C@@H](O)C[S@+]1C[C@@H](O)[C@H](O)[C@H]1CO
4 | 1 | 0.3 | – | – | OC[C@@H]1[C@@H](O)[C@H](O)C[S@@+]1C[C@@H](O)[C@H](O)[C@H](O)[C@@H](O)CO
5 | 5.7 | 0.75 | – | – | O=S(=O)([O-])O[C@@H]([C@H](O)[C@H](O)[C@@H](O)CO)[C@H](O)C[S+]1C[C@@H](O)[C@H](O)[C@H]1CO (stereo partly drawn) [KOTALANOL]
6 | 1.8 | 4.5 | – | – | OC[C@@H]1[C@@H](O)[C@H](O)C[S@@+]1C[C@@H](O)[C@@H](O)[C@H](O)[C@H](O)[C@@H](O)CO [NEOKOTALANOL]
7 | 1.4 | 1 | – | – | OC[C@@H]1[C@@H](O)[C@H](O)C[S@@+]1C[C@@H](O)[C@@H](O)[C@H](O)[C@@H](O)CO [NEOPONKORANOL]
8 | 0.3 | 1.3 | – | – | [O-][C@@H](CO)[C@H](O)C[S@+]1C[C@@H](O)[C@H](O)[C@H]1CO [NEOSALACINOL]
9 | 6.5 | 90 | – | 35 | OC[C@H](O)C[S@+]1C[C@@H](O)[C@H](O)[C@H]1CO [NEOSALAPRINOL]
10 | 2.6 | 0.29 | – | – | O=S(=O)([O-])O[C@@H]([C@H](O)[C@@H](O)CO)[C@H](O)C[S@+]1C[C@@H](O)[C@H](O)[C@H]1CO [PONKORANOL]
11 | 1.3 | 1.6 | – | – | O=S(=O)([O-])O[C@@H](CO)[C@H](O)C[S@+]1C[C@@H](O)[C@H](O)[C@H]1CO [SALACINOL]
12 | 15 | > 329 | – | – | O=S(=O)([O-])OC[C@H](O)C[S@+]1C[C@@H](O)[C@H](O)[C@H]1CO [SALAPRINOL]

Row | SMILES | IC50 [1] [µM] | IC50 [2] [µM] | inhibition [3] [%] | inhibition [4] [%]
13 | OCC(CO)N[C@H]1C[C@](O)(CO)[C@@H](O)[C@H](O)[C@H]1O [VOGLIBOSE] | 2.1 | 0.2 | – | –
